Measured values published in US20250304923A1, “Novel HIV-1 Variants And Their Methods Of Use In An Animal Challenge Model” (priority 2022, published 2025).
Like-named read-outs stand apart in the source and are kept apart here.

Experiments:
[1] = system: virus stocks; assay: Susceptibility of virus stocks to post-exposure prophylaxis drugs (VELA Diagnostics); conditions: all virus stocks, prior to animal testing
From the text: Virus stocks and biologic samples from infected animals were handled with biosafety level 3 operating procedures within a biosafety level 2 physical facility. […] This ensured that any research personnel, in case of accidental exposure to viruses or virus-exposed animals, could be successfully treated with standard post-exposure protocols if necessary.

[2] = system: blood lymphocytes, NK cells, B cells, monocytes; assay: Immune cell dynamics during dexamethasone administration (flow cytometry of blood); parameters: species or system owl monkeys; conditions: monkey, in vivo
Protocol: FIG. S8. […] In the top graph, the plasma viremia is reported for each of three animals over the course of the experiment. ND=no HIV-1 RNA detected. In the remainder of the rows, flow cytometry was performed on fresh Nancy Ma's owl monkey blood to enumerate the indicated cell types over the time course of infection. Antibodies: CD8 Invitrogen #MHCD0801; CD4 BD #550631; CD3 BD #563916 or #563918; CD20 BD #340941; CD16 BD #563892; CD14 BD #557923.
There are other data to support this. In a few animals, Applicants observe undetectable viremia after the acute phase, like elite controllers (one such animal shown in FIG. S29A). Set point viremia in these animals is below 80 HIV-1 RNA copies per mL, our assay LoQ.

[3] = parameters: species or system Nancy Ma's owl monkeys; conditions: monkey, in vivo
[4] = system: HIVnom
From the text: Two Nancy Ma's owl monkeys were intravenously injected with 1.3×10^6 infectious units of HIVnom1 and another two with 2.1×10^6 infectious units of HIVnom2 (FIG. 2a). Blood was drawn weekly for up to 30 weeks, with the “0” timepoint taken from the leg opposite to the site of virus injection five minutes after inoculation. Blood samples were sent to the University of Washington Clinical Retrovirology Laboratory (a human clinical diagnostics lab in Seattle, WA, USA) for determination of plasma viremia by RT-qPCR.
Treatment consisted of a once-daily subcutaneous injection. […] Study animals were maintained at 6 mg/kg for an additional 1-2 weeks.
Plasma vRNA quantification was performed by the commercial human diagnostic services at the University of Washington Retrovirology Laboratory (UWRL; Department of Laboratory Medicine, Seattle, WA, USA) using the Abbott RealTime HIV-1 RNA assay (Abbot #06L18-090) in conjunction with RT-qPCR instrumentation, practices, and procedures standard to that laboratory. Briefly, 500 μL of frozen EDTA owl monkey plasma were submitted for analysis and then diluted to 1 mL by the laboratory prior to processing. The range of vRNA quantitation for the assay is 40-10,000,000 HIV-1 genomes/mL when using undiluted samples, although the range of vRNA reported in this study was 80-20,000,000 HIV-1 genomes per mL due to the dilution required for the animal samples. The laboratory reported four possible outcomes: 1) virus detected and a vRNA quantification in HIV-1 genomes/mL; 2) virus detected but numbers were below the lower limit of quantification (<80 HIV-1 genomes/mL); 3) virus detected but the numbers were above the upper limit of quantification (>20 million HIV-1 genomes/mL); 4) virus not detected. The vRNA assay was performed for each animal prior to the start of the study, on the day of exposure (day 0), and on multiple days throughout the study (File S1).

Which “susceptibility of virus stocks to drug” value [1] does the source give for Nc1nc(=O)n([C@@H]2CS[C@H](CO)O2)cc1F [emtricitabine] here?
Its value is “susceptible”.

With Cc1nnc(C(=O)NC(C)(C)c2nc(C(=O)NCc3ccc(F)cc3)c(O)c(=O)n2C)o1 [raltegravir] as the molecule, how does the “susceptibility of virus stocks to drug” value [1] read?
Its value is “susceptible”.

For C[C@H](Cn1cnc2c(N)ncnc21)OCP(=O)(O)O [tenofovir], which “susceptibility of virus stocks to drug” value [1] is on record?
The value was “susceptible”.

What does the source list for Dexamethasone sodium phosphate?
depletion of blood immune cells [2]: reversibly depleting blood lymphocytes, NK cells, and B cells, but not monocytes; hypokalemia [3]: mild hypokalemia noted to occur in some animals; peak rebound viremia upon dexamethasone treatment ([4]; animal BO): 92 HIVnom genomes per mL; peak rebound viremia upon dexamethasone treatment ([4]; animal JI): 258 HIVnom genomes per mL; peak rebound viremia upon dexamethasone treatment ([4]; animal KI): 612 HIVnom genomes per mL; peak rebound viremia upon dexamethasone treatment ([4]; animal RI): 18,220 HIVnom genomes per mL; virus rebound in blood during dexamethasone treatment ([4]; three of the four animals infected with HIVnom1 or HIVnom2, subcutaneous, several weeks): virus rebounded into the blood to detectable levels
